Source: patent US10052320B2, “Substituted quinoxalines as FGFR kinase inhibitors” (ASTEX THERAPEUTICS LIMITED, priority 2011, dated 2018)
Values joined by “and” are separate entries in the source; they are usually repeats but may differ in a detail not shown here. Equal entries are not always repeated.

Assays:
[1] = target: Ba/F3-FGFR1-transfected cells (Homo sapiens, UniProt P11362); assay: Ba/F3-FGFR1 (minus IL3) cellular proliferation assay, Alamar Blue; format: cell-based; conditions: for BAF3-FGFR 1 (MIN IL3) 384 well pIC50: minus IL3, 384 well; for BAF3-FGFR 1 (MIN IL3) 96 well pIC50: minus IL3, 96 well
Chain of Ba/F3-FGFR1-transfected cells (P11362 whole entry, change not shown): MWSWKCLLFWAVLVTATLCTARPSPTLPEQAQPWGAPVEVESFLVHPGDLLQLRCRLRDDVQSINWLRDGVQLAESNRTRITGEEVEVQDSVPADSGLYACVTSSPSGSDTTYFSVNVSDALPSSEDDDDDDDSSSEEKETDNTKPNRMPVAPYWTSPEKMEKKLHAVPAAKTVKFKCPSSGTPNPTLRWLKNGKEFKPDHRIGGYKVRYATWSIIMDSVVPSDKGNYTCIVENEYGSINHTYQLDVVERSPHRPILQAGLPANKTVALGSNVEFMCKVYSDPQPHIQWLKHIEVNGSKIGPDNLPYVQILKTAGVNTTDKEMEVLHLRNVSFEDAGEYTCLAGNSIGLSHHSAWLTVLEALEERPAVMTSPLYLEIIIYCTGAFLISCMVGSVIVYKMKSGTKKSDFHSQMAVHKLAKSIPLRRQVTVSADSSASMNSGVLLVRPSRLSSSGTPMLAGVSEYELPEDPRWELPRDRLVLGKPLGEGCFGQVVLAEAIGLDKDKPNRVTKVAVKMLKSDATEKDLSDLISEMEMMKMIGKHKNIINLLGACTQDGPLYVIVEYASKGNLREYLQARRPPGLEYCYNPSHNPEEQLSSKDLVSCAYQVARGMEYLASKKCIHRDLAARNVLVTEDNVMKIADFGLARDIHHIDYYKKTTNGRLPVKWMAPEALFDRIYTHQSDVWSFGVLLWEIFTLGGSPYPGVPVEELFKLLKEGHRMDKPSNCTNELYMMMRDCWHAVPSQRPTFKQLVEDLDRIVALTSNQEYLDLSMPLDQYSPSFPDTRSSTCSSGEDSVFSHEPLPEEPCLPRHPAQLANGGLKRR
Method in brief: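 Compound dilutions in DMSO are combined with transfected cells in phenol red-free RPMI-1640 containing 10% FBS and L-glutamine. Plates incubate 24 h at 37 °C and 5% CO2. Viability is then scored by 4 h Alamar Blue conversion, read as fluorescence (540 nm excitation, 590 nm emission).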

FGFR4 (h) = FGFR4 (h) (Homo sapiens, UniProt P22455); assay: FGFR4 (enzymatic assay), TR-FRET; format: biochemical; conditions: read-out: FGFR 4 pIC50 (converted)
Chain of FGFR4 (h) (P22455 22-802): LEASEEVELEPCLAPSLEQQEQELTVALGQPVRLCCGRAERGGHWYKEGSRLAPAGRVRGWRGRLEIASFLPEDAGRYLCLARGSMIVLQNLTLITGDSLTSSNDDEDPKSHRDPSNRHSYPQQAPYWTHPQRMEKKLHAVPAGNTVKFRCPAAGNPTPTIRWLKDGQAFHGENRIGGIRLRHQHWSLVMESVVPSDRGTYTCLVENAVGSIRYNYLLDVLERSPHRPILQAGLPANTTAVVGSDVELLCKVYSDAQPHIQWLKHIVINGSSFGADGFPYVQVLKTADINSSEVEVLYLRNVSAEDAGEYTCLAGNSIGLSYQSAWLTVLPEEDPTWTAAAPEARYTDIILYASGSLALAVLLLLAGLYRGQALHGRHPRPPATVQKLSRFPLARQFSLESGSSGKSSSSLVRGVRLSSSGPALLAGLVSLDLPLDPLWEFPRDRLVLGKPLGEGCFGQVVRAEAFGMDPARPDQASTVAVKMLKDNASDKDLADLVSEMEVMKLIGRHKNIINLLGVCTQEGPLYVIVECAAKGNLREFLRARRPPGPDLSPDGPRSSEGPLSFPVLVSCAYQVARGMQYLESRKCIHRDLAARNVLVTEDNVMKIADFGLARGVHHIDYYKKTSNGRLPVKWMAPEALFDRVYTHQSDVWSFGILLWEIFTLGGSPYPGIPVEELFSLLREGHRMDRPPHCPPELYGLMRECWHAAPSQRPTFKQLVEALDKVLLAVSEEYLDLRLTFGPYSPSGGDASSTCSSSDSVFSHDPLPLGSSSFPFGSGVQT
Procedure: In a final reaction volume of 30 μL, FGFR4 (h) (60 ng/ml) was incubated with 50 mM HEPES pH 7.5, 6 mM MnCl2, 1 mM DTT, 0.1 mM Na3VO4, 0.01% Triton-X-100, 500 nM Btn-Flt3 and 5 μM ATP in the presence of compound (1% DMSO final). […] Time-Resolved Fluorescence Resonance Energy Transfer (TR-FRET) signal (ex340 nm. Em 620 nm, em 655 nm) was measured afterwards and results are expressed in RFU (Relative Fluorescence Units).

[2] = target: Ba/F3-FGFR4-transfected cells (Homo sapiens, UniProt P22455); assay: Ba/F3-FGFR4 cellular proliferation assay, Alamar Blue; format: cell-based
Chain of Ba/F3-FGFR4-transfected cells (P22455 whole entry, change not shown): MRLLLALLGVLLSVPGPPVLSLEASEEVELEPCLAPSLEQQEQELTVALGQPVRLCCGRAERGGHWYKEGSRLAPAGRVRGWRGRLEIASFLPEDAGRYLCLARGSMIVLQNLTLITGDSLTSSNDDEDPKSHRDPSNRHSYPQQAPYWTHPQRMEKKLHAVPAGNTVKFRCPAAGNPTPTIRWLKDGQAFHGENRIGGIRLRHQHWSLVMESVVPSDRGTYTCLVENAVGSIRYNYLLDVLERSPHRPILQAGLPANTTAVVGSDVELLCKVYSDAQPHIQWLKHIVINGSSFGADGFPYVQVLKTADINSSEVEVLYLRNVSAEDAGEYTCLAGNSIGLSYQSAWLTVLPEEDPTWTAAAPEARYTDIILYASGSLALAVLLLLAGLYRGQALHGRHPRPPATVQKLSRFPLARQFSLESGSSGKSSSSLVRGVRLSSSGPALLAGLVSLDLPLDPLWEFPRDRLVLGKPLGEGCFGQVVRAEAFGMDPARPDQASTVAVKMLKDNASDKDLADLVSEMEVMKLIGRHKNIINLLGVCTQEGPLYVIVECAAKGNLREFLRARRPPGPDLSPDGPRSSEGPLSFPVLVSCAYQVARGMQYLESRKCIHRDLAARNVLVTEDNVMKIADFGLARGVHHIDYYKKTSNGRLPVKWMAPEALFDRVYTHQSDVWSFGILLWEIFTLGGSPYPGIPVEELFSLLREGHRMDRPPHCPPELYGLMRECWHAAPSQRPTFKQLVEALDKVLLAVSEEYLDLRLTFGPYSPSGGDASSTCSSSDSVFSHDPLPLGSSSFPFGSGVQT
Method in brief: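 Alamar Blue fluorescence (540/590 nm, 4 h development) measured growth of FGFR4-transfected Ba/F3 cells after 24 h compound treatment at 37° C. Cells were seeded at 20000/well in RPMI-1640, 10% FBS.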

[3] = target: Ba/F3-FGFR3-transfected cells (Homo sapiens, UniProt P22607); assay: Ba/F3-FGFR3 (minus IL3) cellular proliferation assay, Alamar Blue; format: cell-based; conditions: for BAF3-FGFR 3 (MIN IL3) 384 well pIC50: minus IL3, 384 well; for BAF3-FGFR 3 (MIN IL3) 96 well pIC50: minus IL3, 96 well
Chain of Ba/F3-FGFR3-transfected cells (P22607 whole entry, change not shown): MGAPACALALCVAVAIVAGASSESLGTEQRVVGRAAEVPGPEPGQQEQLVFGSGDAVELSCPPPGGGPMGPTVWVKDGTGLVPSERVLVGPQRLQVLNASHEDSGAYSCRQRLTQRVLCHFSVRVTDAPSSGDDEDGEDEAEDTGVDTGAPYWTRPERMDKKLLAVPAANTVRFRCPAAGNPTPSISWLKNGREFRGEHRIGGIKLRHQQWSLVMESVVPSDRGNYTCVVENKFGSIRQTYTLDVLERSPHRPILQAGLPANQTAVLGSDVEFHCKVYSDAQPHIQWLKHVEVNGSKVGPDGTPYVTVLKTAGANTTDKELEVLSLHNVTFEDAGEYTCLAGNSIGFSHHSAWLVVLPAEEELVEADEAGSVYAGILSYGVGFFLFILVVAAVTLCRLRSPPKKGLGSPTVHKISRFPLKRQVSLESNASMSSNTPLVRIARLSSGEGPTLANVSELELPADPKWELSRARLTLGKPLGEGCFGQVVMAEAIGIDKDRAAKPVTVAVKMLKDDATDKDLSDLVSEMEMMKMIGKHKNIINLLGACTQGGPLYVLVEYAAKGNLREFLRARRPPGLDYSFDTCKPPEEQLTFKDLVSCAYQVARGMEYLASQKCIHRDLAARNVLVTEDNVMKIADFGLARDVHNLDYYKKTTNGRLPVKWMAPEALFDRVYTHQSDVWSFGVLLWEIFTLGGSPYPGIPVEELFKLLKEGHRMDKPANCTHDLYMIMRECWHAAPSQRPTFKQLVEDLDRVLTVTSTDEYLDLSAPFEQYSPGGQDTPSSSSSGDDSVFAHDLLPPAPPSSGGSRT
Method in brief: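 Cells are seeded with compound dilutions, incubated 24 h at 37 °C under 5% CO2, then given resazurin-based Alamar Blue for a further 4 h before fluorescence is measured. The plus-IL3 counterscreen repeats this with 10 ng/ml murine IL3.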

KDR (h) (VEGFR2) = KDR (h) (VEGFR2) (Homo sapiens, UniProt P35968); assay: KDR (VEGFR2) (enzymatic assay), TR-FRET; format: biochemical
Chain of KDR (h) (VEGFR2) (P35968 20-1356): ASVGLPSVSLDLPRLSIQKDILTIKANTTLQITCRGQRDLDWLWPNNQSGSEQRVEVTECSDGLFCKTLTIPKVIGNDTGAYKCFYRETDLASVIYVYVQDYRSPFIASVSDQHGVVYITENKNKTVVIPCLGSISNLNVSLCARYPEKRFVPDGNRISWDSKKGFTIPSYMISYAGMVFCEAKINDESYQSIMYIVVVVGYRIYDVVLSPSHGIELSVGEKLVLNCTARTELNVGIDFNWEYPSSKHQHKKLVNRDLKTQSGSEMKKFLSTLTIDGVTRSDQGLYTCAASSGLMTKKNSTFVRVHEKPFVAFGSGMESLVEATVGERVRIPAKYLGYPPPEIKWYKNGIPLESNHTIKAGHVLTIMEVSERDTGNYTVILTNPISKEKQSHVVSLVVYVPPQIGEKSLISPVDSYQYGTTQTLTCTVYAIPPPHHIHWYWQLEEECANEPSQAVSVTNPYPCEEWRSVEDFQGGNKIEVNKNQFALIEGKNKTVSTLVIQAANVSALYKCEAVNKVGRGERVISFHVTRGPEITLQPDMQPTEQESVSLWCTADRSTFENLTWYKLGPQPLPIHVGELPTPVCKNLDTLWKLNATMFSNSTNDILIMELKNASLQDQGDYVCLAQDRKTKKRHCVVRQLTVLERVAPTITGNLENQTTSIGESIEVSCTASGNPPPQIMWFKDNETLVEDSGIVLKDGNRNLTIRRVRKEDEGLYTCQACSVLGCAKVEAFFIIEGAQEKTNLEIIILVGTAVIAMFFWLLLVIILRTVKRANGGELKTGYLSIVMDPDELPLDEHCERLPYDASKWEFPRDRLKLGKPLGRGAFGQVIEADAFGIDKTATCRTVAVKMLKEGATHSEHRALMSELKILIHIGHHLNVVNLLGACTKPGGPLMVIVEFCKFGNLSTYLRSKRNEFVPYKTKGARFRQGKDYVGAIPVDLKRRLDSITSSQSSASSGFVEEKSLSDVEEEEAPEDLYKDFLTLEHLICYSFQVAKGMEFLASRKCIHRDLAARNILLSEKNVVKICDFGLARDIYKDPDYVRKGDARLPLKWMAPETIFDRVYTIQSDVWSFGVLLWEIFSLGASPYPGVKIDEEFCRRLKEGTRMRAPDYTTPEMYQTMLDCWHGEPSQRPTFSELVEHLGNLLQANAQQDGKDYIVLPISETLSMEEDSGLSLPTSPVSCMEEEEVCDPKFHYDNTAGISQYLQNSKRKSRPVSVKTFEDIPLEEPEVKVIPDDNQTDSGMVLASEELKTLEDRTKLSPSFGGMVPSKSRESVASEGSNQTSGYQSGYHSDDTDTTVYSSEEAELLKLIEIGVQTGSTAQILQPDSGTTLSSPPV
Method in brief: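 Phosphorylation of biotinylated Flt3 peptide (500 nM) by 150 ng/ml enzyme was measured at 3 μM ATP in Mn2+-containing HEPES buffer, pH 7.5, over 120 min at room temperature. Detection used Eu-anti-P-Tyr and SA-XL-665 TR-FRET.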

| SMILES | melting point | BAF3-FGFR 1 (MIN IL3) 384 well pIC50 [1] | IC50 (FGFR4 (h)) | BAF3-FGFR4 pIC50 [2] | BAF3-FGFR 3 (MIN IL3) 384 well pIC50 [3] | IC50 (KDR (h) (VEGFR2)) | BAF3-FGFR 1 (MIN IL3) 96 well pIC50 [1] | BAF3-FGFR 3 (MIN IL3) 96 well pIC50 [3] |
| --- | --- | --- | --- | --- | --- | --- | --- | --- |
| COc1cc(OC)cc(N(CC2CC2)c2ccc3ncc(-c4cn(CCO)nn4)nc3c2)c1 [Compound 40] | 178 °C and 177 °C | 5.24 | 302 nM | ~5.0 | ~5.15 | 398 nM | 5.4 | 5.04 |
| COc1cc(OC)cc(N(CC2CC2)c2ccc3ncc(-n4cnc(CO)c4)nc3c2)c1 [Compound 105] | 154 °C | 5.32 | 132 nM | 5.53 | 5.53 | 741 nM |  |  |
| COc1cc(OC)cc(N(CC2CC2)c2ccc3ncc(-n4ccc(C)n4)nc3c2)c1 [Compound 31] | 107 °C | <5 | 776 nM | <5 | <5 | > 1000 nM | <5 | <5 |
| COc1cc(OC)cc(N(CC2CC2)c2ccc3ncc(C(=O)NCCN4CCOCC4)nc3c2)c1 [Compound 96] | 112 °C | <5 | > 1000 nM | <5 | <5 | > 1000 nM |  | 5.18 |
| COc1cc(OC)cc(N(CC2CC2)c2ccc3ncc(-c4nnn(C)n4)nc3c2)c1 [Compound 82] | 143 °C | <5 | > 1000 nM | <5 | <5 | > 1000 nM | 5.03 | 5.18 |
| COc1cc(OC)cc(N(CC2CC2)c2ccc3ncc(-c4nnn[nH]4)nc3c2)c1 [Compound 41] | 216 °C | <5 | 79.4 nM | <5 | <5 | 3310 nM | <5 | <5 |
| COc1cc(OC)cc(N(CC2CC2)c2ccc3ncc(-c4nnnn4C)nc3c2)c1 [Compound 83] | 168 °C | <5 | > 1000 nM | <5 | <5 | > 1000 nM | <5 | <5 |
| COc1cc(OC)cc(N(CC2CC2)c2ccc3ncc(-n4nccc4C)nc3c2)c1 [Compound 62] | 139 °C | <5 | > 1000 nM | <5 | <5 | > 1000 nM | <5 | <5 |
| COc1cc(OC)cc(N(CCCNCC(F)(F)F)c2ccc3ncc(-c4ccc(N(C)C(=O)OC(C)(C)C)nc4)nc3c2)c1 [Compound 127] |  | <5 | 912 nM | <5 | <5 | > 1000 nM |  |  |
| CCOC(=O)c1ncn(-c2cnc3ccc(N(CC4CC4)c4cc(OC)cc(OC)c4)cc3n2)c1C [Compound 65] |  | <5 | > 1000 nM | <5 | <5 | > 1000 nM | <5 | 5.08 |

Further lines, results first:

| melting point | BAF3-FGFR 1 (MIN IL3) 384 well pIC50 [1] | IC50 (FGFR4 (h)) | BAF3-FGFR4 pIC50 [2] | BAF3-FGFR 3 (MIN IL3) 384 well pIC50 [3] | IC50 (KDR (h) (VEGFR2)) | BAF3-FGFR 1 (MIN IL3) 96 well pIC50 [1] | BAF3-FGFR 3 (MIN IL3) 96 well pIC50 [3] | SMILES |
| --- | --- | --- | --- | --- | --- | --- | --- | --- |
| 188 °C | 5.9 | 17.8 nM | 6.4 | 6.59 | 135 nM |  |  | CNc1ccc(-c2cnc3ccc(N(CCCO)c4cc(OC)cc(OC)c4)cc3n2)cn1 [Compound 116] |
| 184 °C | 6.92 | 15.5 nM | 6.5 | 6.87 | 110 nM |  |  | COc1cc(OC)cc(N(CCCO)c2ccc3ncc(-c4ccc(N5CCNCC5)nc4)nc3c2)c1 [Compound 48] |
| 176 °C | 5.05 | > 1000 nM | <5 | 5.13 | > 1000 nM |  |  | CNC(=O)c1cc(-c2cnc3ccc(N(CCN4CCCC4=O)c4cc(OC)cc(OC)c4)cc3n2)ccn1 [Compound 25] |
| 175 °C | <5 | 1120 nM | <5 | <5 | > 10000 nM | <5 | <5 | COc1cc(OC)cc(N(CC2CC2)c2ccc3ncc(-c4nccn4C)nc3c2)c1 [Compound 60] |
| 213 °C | <5 | > 1000 nM | <5 | <5 | > 1000 nM |  |  | COc1cc(OC)cc(N(CCCO)c2ccc3ncc(-c4ccnc(NC(=O)OC(C)(C)C)c4)nc3c2)c1 [Compound 128] |
| 195 °C | 5.65 | 70.8 nM | 5.9 | ~6.17 | 741 nM |  |  | COc1cc(OC)cc(N(CCO)c2ccc3ncc(-c4ccc(OC)nc4)nc3c2)c1 [Compound 111] |
| 118 °C | 7.27 | 20.4 nM | 6.8 | ~7.03 | 95.5 nM |  |  | COc1cc(OC)cc(N(CCNC(C)C)c2ccc3ncc(-c4ccncc4)nc3c2)c1 [Compound 12] |
| 103 °C | 5.22 | 245 nM | 5.2 | 5.57 | 575 nM |  |  | COc1cc(OC)cc(N(CCO)c2ccc3ncc(-c4ccnc(C(=O)NCCCN)c4)nc3c2)c1 [Compound 123] |
| 98 °C | 5.44 | 170 nM | 5.5 | ~5.63 | > 1000 nM |  |  | CNC(=O)c1cc(-c2cnc3ccc(N(CCNCC(F)(F)F)c4cc(OC)cc(OC)c4)cc3n2)ccn1 [Compound 113] |
| 158 °C | 6.01 | 41.7 nM | 5.9 | 6.65 | 269 nM |  |  | COc1cc(OC)cc(N(CCO)c2ccc3ncc(-c4ccncc4)nc3c2)c1 [Compound 11] |
| 182 °C | 5.66 | 63.1 nM | 5.9 | 5.91 | 209 nM |  |  | CNCCN(c1cc(OC)cc(OC)c1)c1ccc2ncc(-c3ccc(NC(=O)OC(C)(C)C)nc3)nc2c1 [Compound 81] |
|  | 6.62 | 26.9 nM | 6.1 | 6.69 | 309 nM |  |  | COc1cc(OC)cc(N(CC(O)CO)c2ccc3ncc(-c4ccc(N)nc4)nc3c2)c1 (stereo not shown) [Compound 74] |
|  | 5.29 | 316 nM | ~5.1 | 5.49 | > 1000 nM |  |  | CNC(=O)c1cc(-c2cnc3ccc(N(CCCNCC(F)(F)F)c4cc(OC)cc(OC)c4)cc3n2)ccn1 [Compound 122] |
|  | <5 | > 1000 nM | <5 | <5 | > 1000 nM | <5 | <5 | COc1cc(OC)cc(N(CC2CC2)c2ccc3ncc(-n4ccnc4C)nc3c2)c1 [Compound 32] |
|  | 6.67 | 87.1 nM | 5.5 | 6.25 | 912 nM |  |  | COc1cc(OC)cc(N(CCCO)c2ccc3ncc(-c4ccc(F)nc4)nc3c2)c1 [Compound 117] |
